Results as given in patent publication US9783500B2, “2-aminoquinoline-based compounds for potent and selective neuronal nitric oxide synthase inhibition” (priority 2014, dated 2017).
Structures can show the parent of a compound that is named as a salt.

These compounds were tested against rat nNOS (Rattus norvegicus (Rat), UniProt P29476). Conditions: Table 1; ratio of Ki values, bovine eNOS/rat nNOS.

Row | SMILES | Selectivity n/e
1 | Cl.Cl.Nc1ccc2ccc(CNCCc3cccc(F)c3)cc2n1 [5 (Ex. 8), 7-[(3-Fluorophenethylamino)methyl]quinolin-2-amine Dihydrochloride] | 6.2
2 | Cl.Cl.Nc1ccc2ccc(CCNCc3cccc(F)c3)cc2n1 [6 (Ex. 12), 7-[2-(3-Fluorobenzylamino)ethyl]quinolin-2-amine Dihydrochloride] | 30
3 | Cl.Cl.Nc1ccc2ccc(CCNCCc3ccc(Cl)cc3)cc2n1 [16 (Ex. 18), 7-[(4-Chlorophenethylamino)ethyl]quinolin-2-amine Dihydrochloride] | 47
4 | Nc1ccc2ccc(CNCCCc3cccc(F)c3)cc2n1 [9 (Ex. 9), 7-{2-[3-(3-Fluorophenyl(propylamino)methyl]}quinolin-2-amine Dihydrochloride] | 62

Same assay, conditions: Table 1; ratio of Ki values, murine iNOS/rat nNOS

Row | SMILES | Selectivity n/i
5 | Cl.Cl.Nc1ccc2ccc(CCNCc3cccc(F)c3)cc2n1 [6 (Ex. 12), 7-[2-(3-Fluorobenzylamino)ethyl]quinolin-2-amine Dihydrochloride] | 97
6 | Cl.Cl.Nc1ccc2ccc(CCNCCc3ccc(F)cc3)cc2n1 [14 (Ex. 16), 7-[(4-Fluorophenethylamino)ethyl]quinolin-2-amine Dihydrochloride] | 280
7 | Cl.Cl.Nc1ccc2ccc(CCNCCc3ccc(Cl)cc3)cc2n1 [16 (Ex. 18), 7-[(4-Chlorophenethylamino)ethyl]quinolin-2-amine Dihydrochloride] | 91
8 | Nc1ccc2ccc(CNCCCc3cccc(F)c3)cc2n1 [9 (Ex. 9), 7-{2-[3-(3-Fluorophenyl(propylamino)methyl]}quinolin-2-amine Dihydrochloride] | 538

Same assay, conditions: read-out: Ki nNOS; Table 1; purified rat nNOS; Ki calculated from IC50

Row | SMILES | Ki [µM]
9 | Nc1ccc2cc(CCNCCCc3cccc(F)c3)ccc2n1 [13 (Ex. 30), 6-{2-[3-(3-Fluorophenyl(propylamino)ethyl]}quinolin-2-amine Dihydrochloride] | 4.37
